ChEMBL document CHEMBL1201862, “PubChem BioAssay data set” (2004)
The source made the active and inactive calls.

How the values were obtained:
[1] = inhibition of ARNT PAS-B/TACC3 complex formation – biochemical, AlphaScreen, cherry-picked samples, confirmation (AID 651703); type: functional, Homo sapiens;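 note: His-tagged ARNT PAS-B domain paired with GST-TACC3 E629A dimer coactivator fragment; potency of inhibitors that break up the complex and lower AlphaScreen signal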
Fatty acid synthase [2] = biological target: T1, Fatty acid synthase (Homo sapiens, UniProt P49327); experiment: inhibition of human FAS-TE enzyme activity – biochemical, endpoint fluorescence intensity, uHTS hits, dose response (AID 624327); type: functional;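 note: fluorescence from hydrolysis of an O-methyl fluorescein acyl ester substrate by the enzyme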
T1 sequence (P49327 whole entry): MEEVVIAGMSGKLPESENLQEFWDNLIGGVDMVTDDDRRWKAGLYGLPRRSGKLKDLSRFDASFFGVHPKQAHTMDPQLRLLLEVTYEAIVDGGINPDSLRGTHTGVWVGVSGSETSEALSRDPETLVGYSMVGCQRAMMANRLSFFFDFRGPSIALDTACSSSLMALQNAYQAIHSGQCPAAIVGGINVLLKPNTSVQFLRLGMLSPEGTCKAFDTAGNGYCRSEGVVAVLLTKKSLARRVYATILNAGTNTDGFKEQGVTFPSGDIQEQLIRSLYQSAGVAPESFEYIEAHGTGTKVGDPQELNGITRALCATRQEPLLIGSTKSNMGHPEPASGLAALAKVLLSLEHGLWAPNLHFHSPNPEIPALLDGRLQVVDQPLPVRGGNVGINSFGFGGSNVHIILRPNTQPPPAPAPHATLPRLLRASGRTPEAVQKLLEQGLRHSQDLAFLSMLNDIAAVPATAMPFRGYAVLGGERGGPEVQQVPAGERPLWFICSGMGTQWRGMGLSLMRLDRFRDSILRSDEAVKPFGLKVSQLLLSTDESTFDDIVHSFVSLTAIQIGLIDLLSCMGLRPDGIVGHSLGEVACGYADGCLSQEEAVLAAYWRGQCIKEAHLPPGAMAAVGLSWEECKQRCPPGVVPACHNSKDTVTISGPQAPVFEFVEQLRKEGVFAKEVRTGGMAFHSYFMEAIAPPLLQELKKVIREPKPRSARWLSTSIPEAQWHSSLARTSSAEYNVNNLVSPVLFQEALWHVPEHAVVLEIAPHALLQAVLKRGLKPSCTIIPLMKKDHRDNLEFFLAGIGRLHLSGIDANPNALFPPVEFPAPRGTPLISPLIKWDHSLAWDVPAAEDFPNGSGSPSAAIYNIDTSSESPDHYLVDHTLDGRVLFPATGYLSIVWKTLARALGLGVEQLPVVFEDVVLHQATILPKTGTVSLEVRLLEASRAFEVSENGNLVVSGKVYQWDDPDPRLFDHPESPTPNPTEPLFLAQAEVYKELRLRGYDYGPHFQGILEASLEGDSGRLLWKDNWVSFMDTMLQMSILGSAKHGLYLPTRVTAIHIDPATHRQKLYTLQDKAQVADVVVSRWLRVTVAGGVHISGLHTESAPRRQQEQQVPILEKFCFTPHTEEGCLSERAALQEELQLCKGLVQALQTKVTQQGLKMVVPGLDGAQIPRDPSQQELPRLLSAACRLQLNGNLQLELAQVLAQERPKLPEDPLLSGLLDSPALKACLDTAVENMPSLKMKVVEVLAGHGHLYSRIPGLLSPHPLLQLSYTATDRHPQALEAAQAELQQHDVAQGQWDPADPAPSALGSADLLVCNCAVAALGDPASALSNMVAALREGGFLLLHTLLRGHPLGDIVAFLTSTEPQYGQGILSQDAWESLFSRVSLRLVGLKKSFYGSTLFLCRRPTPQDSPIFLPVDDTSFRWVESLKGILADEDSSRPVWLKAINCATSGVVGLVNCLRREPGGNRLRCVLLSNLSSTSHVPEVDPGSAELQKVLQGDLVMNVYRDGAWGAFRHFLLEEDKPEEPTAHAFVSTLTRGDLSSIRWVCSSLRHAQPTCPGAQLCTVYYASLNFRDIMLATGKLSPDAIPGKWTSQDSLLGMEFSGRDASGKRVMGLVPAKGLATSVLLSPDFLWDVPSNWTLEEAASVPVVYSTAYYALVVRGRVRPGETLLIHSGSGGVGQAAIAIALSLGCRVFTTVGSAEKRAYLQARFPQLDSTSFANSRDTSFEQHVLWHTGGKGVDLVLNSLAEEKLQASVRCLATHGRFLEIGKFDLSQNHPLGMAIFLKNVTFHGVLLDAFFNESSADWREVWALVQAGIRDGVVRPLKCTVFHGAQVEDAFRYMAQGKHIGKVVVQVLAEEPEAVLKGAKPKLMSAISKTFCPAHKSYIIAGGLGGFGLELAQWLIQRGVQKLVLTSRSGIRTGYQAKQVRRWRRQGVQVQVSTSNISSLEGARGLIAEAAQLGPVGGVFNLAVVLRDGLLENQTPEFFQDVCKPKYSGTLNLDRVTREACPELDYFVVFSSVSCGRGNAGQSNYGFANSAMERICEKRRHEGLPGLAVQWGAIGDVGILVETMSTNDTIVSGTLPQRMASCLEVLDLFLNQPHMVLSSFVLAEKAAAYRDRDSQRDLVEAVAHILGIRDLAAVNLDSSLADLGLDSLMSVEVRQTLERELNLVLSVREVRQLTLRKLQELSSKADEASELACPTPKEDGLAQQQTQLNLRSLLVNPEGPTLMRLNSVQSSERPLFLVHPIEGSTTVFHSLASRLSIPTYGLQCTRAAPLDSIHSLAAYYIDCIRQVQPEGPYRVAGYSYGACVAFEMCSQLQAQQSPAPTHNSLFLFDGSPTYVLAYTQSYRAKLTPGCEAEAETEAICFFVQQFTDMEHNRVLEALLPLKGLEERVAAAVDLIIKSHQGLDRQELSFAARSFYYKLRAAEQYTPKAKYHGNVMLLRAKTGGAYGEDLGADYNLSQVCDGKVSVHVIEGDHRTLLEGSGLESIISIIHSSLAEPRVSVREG

Beta Lactamase = Beta Lactamase (Pseudomonas aeruginosa, UniProt Q932Y6); experiment: BLA reporter interference, concentration series – BLA reporter cells, FRET fluorescence, artefact control for NOD2-RIPK2 interaction inhibitor project, dose response (AID 651552); type: functional, cell-based
Sequence of Beta Lactamase (Q932Y6 whole entry): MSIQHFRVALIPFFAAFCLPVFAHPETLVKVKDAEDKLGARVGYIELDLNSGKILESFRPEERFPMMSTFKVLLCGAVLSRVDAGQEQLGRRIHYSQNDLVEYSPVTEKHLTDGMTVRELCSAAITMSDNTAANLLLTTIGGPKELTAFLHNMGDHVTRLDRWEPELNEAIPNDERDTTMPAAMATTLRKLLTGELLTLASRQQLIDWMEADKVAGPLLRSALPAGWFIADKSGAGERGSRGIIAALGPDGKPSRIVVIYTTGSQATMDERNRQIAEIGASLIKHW

Fatty acid synthase [3] = biological target: T1, Fatty acid synthase; experiment: inhibition of human FAS-TE enzyme activity – biochemical, kinetic fluorescence intensity, dose response (AID 624326); type: functional;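 note: rate of fluorescence rise from hydrolysis of a fluorogenic O-methyl fluorescein ester substrate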
[4] = Fluorescence-based cell-based high throughput dose response assay for inhibitors of the interaction of nucleotide-binding oligomerization domain containing 2 (NOD2) and the receptor-interacting serine-threonine kinase 2 (RIPK2).; type: functional; details: Homo sapiens
Caspase-6 = biological target: T2, Caspase-6 (Homo sapiens, UniProt P55212); experiment: inhibition of CASP6 peptide cleavage – biochemical, VEID-R110 fluorescence, cherry-pick, dose response (AID 720632)
T2 sequence (P55212 whole entry): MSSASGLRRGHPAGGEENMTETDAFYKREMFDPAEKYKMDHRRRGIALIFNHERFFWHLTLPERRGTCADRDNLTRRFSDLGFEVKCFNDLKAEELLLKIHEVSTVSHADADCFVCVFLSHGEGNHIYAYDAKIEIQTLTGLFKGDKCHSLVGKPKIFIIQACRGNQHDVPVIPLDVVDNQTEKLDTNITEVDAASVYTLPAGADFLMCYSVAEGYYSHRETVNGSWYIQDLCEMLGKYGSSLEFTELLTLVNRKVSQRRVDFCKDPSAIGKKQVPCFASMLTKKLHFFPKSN

BJ [5] = experiment: cells; type: functional, cell-based; details: Homo sapiens
[6] = SNU-C1 cell viability reduction, dose response, CellTiter-Glo luminescence (AID 1117323); type: functional, cell-based
Nonstructural protein 1 = Nonstructural protein 1 (Influenza A virus, UniProt Q194T2); type: functional, Influenza A virus (A/California/07/2009(H1N1))
Sequence of Nonstructural protein 1 (Q194T2 whole entry): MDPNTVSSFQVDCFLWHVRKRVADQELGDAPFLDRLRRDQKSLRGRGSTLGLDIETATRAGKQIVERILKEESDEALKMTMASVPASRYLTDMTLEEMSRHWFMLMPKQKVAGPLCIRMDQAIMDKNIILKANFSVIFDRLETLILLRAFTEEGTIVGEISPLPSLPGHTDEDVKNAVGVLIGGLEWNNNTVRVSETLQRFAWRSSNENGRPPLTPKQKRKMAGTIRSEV

[7] = cytotoxicity toward HT-29 cells – cell-based, CellTiter-Glo luminescence, IC50, dose response (AID 1117330); type: functional
[8] = Reduced DLD-1 viability, concentration-response, CellTiter-Glo luminescence (AID 1117352); type: functional
Protein RecA = biological target: T3, Protein RecA (Mycobacterium tuberculosis, UniProt P9WHJ3); experiment: Fluorescence Cell-Free Homogeneous Dose Retest to Identify Inhibitors of RecA-Intein Splicing Activity. [Related pubchem assays (depositor defined):AID2097, AID2223, AID489010, AID492950]; type: functional
T3 sequence (P9WHJ3 whole entry): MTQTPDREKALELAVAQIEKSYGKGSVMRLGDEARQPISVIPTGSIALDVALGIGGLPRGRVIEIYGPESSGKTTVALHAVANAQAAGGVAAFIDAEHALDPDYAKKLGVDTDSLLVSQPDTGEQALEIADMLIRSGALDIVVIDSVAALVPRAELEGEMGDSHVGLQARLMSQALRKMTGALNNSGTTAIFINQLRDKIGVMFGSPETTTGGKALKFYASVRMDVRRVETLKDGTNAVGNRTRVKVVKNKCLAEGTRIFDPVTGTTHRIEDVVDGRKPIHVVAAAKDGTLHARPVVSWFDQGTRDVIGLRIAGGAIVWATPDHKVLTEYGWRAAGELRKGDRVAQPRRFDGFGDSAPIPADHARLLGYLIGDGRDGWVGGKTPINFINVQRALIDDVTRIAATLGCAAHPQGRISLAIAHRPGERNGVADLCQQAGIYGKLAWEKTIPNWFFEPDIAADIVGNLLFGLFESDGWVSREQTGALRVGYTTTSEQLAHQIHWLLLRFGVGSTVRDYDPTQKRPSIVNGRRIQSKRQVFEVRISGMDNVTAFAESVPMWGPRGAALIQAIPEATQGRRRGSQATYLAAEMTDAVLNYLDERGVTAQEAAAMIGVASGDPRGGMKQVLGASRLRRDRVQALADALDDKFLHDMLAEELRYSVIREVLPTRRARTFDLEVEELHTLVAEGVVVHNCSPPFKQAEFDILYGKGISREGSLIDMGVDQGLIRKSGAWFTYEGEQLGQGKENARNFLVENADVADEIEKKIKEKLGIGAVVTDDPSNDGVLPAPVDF

[9] = rise of 2N DNA cells, HeLa – IC50, dose response (AID 1117349); type: functional, cell-based
[10] = cytotoxicity toward Colo320 cells – cell-based, CellTiter-Glo luminescence, IC50, dose response (AID 1117334); type: functional; details: COLO 320
[11] = toxicity toward HepG2 liver cells – cell-based, plate reader, cherry-pick, antagonist series, cytotoxicity control, dose response (AID 743416); type: functional
[12] = CellTiter-Glo luminescence survival assay, SW480 colon tumor line, concentration-response curve, half-maximal inhibitory concentration (AID 1117338); type: functional
[13] = blockade of melanocortin 4 receptor signaling – cell-based, plate reader, cherry pick, counter-screen for LGR2 antagonist project, dose response (AID 743444); type: functional;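 note: transfected HEK 293 cells stimulated with alpha-MSH peptide; potency of inhibitors of the alpha-MSH evoked signal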
[14] = biological target: Heat shock protein HSP 90-alpha (Homo sapiens, UniProt P07900); type: functional, organism-based
[15] = viability loss in HEK293 cells – cell-based, plate reader, cherry-picked samples, cytotoxicity control, dose response (AID 743446); type: functional
[16] = rise of 4N DNA cells, HeLa – IC50, dose response (AID 1117351); type: functional, cell-based
BJ [17] = experiment: BJ-TERT-LT-ST fibroblast viability loss – cell-based, RAS-independent, luminescence, dose response (AID 1935); type: functional; details: Homo sapiens;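 note: BJ fibroblasts immortalized with TERT plus LT and ST oncogenes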
[18] = viability loss in THP-1 monocytes – THP-1 cells, cytotoxicity control for Vif-APOBEC3G degradation inhibitor project, dose response (AID 1117359); type: functional; details: THP-1
[19] = RKO cell viability reduction, dose response, CellTiter-Glo luminescence (AID 1117322); type: functional
[20] = biological target: T4, Replicative DNA helicase DnaB (Mycobacterium tuberculosis, UniProt P9WMR3); experiment: DnaB intein splicing inhibitors, dose response, biochemical, cell-free fluorescence (AID 449749); type: functional
T4 sequence (P9WMR3 whole entry): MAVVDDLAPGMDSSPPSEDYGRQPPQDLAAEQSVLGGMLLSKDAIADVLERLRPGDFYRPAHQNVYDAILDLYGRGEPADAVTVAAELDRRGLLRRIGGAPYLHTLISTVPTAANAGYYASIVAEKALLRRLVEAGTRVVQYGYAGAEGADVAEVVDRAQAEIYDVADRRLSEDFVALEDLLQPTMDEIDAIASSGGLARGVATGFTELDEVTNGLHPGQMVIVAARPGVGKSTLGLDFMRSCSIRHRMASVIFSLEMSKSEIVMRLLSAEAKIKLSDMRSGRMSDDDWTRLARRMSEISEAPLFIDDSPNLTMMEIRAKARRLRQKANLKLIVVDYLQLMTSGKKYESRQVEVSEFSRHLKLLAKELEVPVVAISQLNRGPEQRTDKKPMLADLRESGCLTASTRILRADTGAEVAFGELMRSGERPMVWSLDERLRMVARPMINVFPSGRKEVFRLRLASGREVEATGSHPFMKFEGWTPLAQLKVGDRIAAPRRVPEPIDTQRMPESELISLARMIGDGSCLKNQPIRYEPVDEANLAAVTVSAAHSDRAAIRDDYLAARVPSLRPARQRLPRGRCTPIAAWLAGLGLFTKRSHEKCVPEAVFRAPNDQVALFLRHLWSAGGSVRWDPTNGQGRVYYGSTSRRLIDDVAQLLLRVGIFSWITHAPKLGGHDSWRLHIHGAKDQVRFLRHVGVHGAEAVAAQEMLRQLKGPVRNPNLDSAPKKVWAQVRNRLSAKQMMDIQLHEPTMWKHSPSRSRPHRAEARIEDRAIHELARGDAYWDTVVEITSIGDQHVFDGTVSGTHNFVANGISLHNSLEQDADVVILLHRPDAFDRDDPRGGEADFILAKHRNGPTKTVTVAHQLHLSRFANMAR

[21] = biological target: Photoreceptor-specific nuclear receptor (Homo sapiens, UniProt Q9Y5X4); type: functional, cell-based;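 note: CHO-S cells with Gal4-NCOR and VP16-NR2E3 two-hybrid luciferase reporter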
Sequence of Photoreceptor-specific nuclear receptor (Q9Y5X4 whole entry, the tested form may be a part): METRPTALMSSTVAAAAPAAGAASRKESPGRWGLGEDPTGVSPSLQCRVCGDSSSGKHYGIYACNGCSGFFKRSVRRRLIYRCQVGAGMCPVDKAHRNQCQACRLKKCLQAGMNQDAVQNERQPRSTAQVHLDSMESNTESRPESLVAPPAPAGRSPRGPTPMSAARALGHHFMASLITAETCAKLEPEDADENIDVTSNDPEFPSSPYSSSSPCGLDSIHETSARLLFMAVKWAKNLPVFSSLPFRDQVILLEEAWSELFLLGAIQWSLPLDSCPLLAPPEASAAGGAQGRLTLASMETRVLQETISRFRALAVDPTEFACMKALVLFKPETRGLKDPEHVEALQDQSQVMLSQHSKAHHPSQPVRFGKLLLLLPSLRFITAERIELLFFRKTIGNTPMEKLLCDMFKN

BJ [22] = experiment: BJ-TERT fibroblast viability loss – cell-based, RAS-independent, luminescence, dose response (AID 1933); type: functional; details: Homo sapiens
[23] = cytotoxicity toward HCT116 cells – cell-based, CellTiter-Glo luminescence, IC50, dose response (AID 1117332); type: functional; details: HCT-116
[24] = HCT116 cell viability decrease, GSK3B pretreatment – CellTiter-Glo, IC50, dose response (AID 1117339); type: functional; details: HCT-116
[25] = A549 cell cytotoxicity, dose response, cytotoxicity control, plate reader, cherry-pick, antagonist series (AID 743412); type: functional, cell-based
[26] = DRD fibroblast viability loss – cell-based, non-viral oncogenic, luminescence, dose response (AID 1934); type: functional; details: Homo sapiens
[27] = blockers of bursicon-stimulated LGR2 cAMP reporter – cell-based, HEK293, CRE-luciferase reporter, cherry pick, set 2, dose response (AID 743343); type: functional;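 note: transfected cells were stimulated with diluted bursicon conditioned medium after compound addition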
[28] = fluconazole-exposed Candida albicans growth modulators – fluorescence, retest, confirmation (AID 2467); type: functional, cell-based
[29] = NIH-3T3 fibroblast cytotoxicity, dose response, cytotoxicity control, cell-based, fluorescence, Alamar Blue, secondary assay (AID 2327); type: functional;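 note: NIH-3T3 mouse fibroblasts cultured with fluconazole at 8 µg/mL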

Question: With `COC(=O)C(CC#Cc1ccc2c(c1)[C@]1(C(=O)N2)[C@H](c2ccc(OCCO)cc2)N2[C@H](c3ccccc3)[C@H](c3ccccc3)OC(=O)[C@H]2[C@@H]1C(=O)N1CCCCCCC1)C(=O)OC` as the molecule, how does the AC50 [1] read?
Answer: The AC50 was 126 µM (active).

Question: Which IC50 (Fatty acid synthase [2]) does the source give for `CCOC(=O)[C@]12Cc3c(cc(OC)c(OC)c3OC)[C@H]1N(C1CCCCC1)C(=O)c1ccccc12` here?
Answer: Its IC50 is 8.89 µM (active).

Question: And the IC50 (Beta Lactamase)?
Answer: Its IC50 is 25.5 µM (inactive).

Question: And the IC50 (Fatty acid synthase [3])?
Answer: The IC50 was 7.77 µM (active).

Question: What about the IC50 [4] of the same molecule?
Answer: Its IC50 is 2.03 µM (active).

Question: With `O=[N+]([O-])c1ccc(O)c2ncccc12` [NITROXOLINE] as the molecule, how does the AC50 (Caspase-6) read?
Answer: The AC50 was 14.9 µM (active).

Question: And the EC50 (BJ [5])?
Answer: Its EC50 is 28.8 µM (active).

Question: What about the IC50 [6] of the same molecule?
Answer: Its IC50 is > 20 µM (inactive).

Question: And the IC50 (Nonstructural protein 1)?
Answer: The IC50 was 4.72 µM (active).

Question: And the IC50 [7]?
Answer: Its IC50 is > 20 µM (inactive).

Question: And the IC50 [8]?
Answer: The IC50 was 1.38 µM (active).

Question: And the EC50 (Protein RecA)?
Answer: The EC50 was 14.4 µM (active).

Question: What about the IC50 [9] of the same molecule?
Answer: The IC50 was 1.7 µM (active).

Question: What about the IC50 [10] of the same molecule?
Answer: Its IC50 is 684 nM (active).

Question: What about the AC50 [11] of the same molecule?
Answer: The AC50 was 9.7 µM (active).

Question: What about the IC50 [12] of the same molecule?
Answer: Its IC50 is 605 nM (active).

Question: And the AC50 [13]?
Answer: The AC50 was 48.7 µM (active).

Question: And the AC50 [14]?
Answer: The AC50 was 996 nM (active).

Question: What about the AC50 [15] of the same molecule?
Answer: Its AC50 is 11.5 µM (active).

Question: And the IC50 [16]?
Answer: The IC50 was > 10 µM (inactive).

Question: And the EC50 (BJ [17])?
Answer: Its EC50 is 16.7 µM (inconclusive).

Question: What about the CC50 [18] of the same molecule?
Answer: The CC50 was 5.53 µM (active).

Question: And the IC50 [19]?
Answer: Its IC50 is 710 nM (active).

Question: What about the AC50 [20] of the same molecule?
Answer: The AC50 was 9.95 µM (active).

Question: And the IC50 [21]?
Answer: Its IC50 is 8.96 µM (active).

Question: What about the EC50 (BJ [22]) of the same molecule?
Answer: The EC50 was 9.44 µM (active).

Question: What about the IC50 [23] of the same molecule?
Answer: Its IC50 is 921 nM (active).

Question: And the IC50 [24]?
Answer: The IC50 was 375 nM (active).

Question: What about the AC50 [25] of the same molecule?
Answer: Its AC50 is 12.1 µM (active).

Question: And the EC50 [26]?
Answer: Its EC50 is 16.6 µM (active).

Question: What about the AC50 [27] of the same molecule?
Answer: Its AC50 is 54.9 µM (active).

Question: And the EC50 [28]?
Answer: The EC50 was 161 nM (active).

Question: What about the EC50 [29] of the same molecule?
Answer: The EC50 was 9.52 µM (inconclusive).
